What is called DC50 is the midpoint of the concentration-degradation curve.

In the test the target is T1, SHP2 protein (Homo sapiens, UniProt Q06124).
T1 sequence (Q06124 1-593): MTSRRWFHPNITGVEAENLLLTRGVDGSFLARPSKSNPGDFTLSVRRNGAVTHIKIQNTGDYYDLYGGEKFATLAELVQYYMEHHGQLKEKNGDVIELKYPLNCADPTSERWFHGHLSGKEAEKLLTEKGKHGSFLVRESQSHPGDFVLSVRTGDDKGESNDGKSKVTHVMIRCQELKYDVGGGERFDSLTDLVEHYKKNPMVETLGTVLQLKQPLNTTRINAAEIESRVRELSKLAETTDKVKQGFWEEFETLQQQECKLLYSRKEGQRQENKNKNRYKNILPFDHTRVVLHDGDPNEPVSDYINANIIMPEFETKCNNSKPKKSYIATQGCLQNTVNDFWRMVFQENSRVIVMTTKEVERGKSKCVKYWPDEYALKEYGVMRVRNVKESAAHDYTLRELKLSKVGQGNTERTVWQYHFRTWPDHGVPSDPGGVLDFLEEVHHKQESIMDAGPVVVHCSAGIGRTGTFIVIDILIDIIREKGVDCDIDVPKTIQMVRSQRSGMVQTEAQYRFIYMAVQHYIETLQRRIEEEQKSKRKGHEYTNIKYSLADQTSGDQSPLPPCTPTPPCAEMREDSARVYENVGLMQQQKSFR
Description: Degradation activity on SHP2 protein in MV-411 cells (Western blot, DC50). Type of test: cell-based. The arrangement: endogenous in cells. The note with it: MV411 cells, 24 hours, read-out: Degradation activity for differenct cell lines MV411 (DC50). The method in brief:
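MV-411 cells (1×10^6 cells/well, IMDM + 10% FBS) were treated 24 h with compound at 0.1-100 nM final, 0.1% DMSO, duplicates. SHP2 measured by Western blot against GAPDH, band density normalised to DMSO control; DC50 from dose-response fit.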
(In general: In western blotting, separated proteins are transferred to a membrane and probed.)
As for `CC1(N)CCN(c2cnc(Sc3cccc(NC(=O)CCCCCC(=O)N4CC5(CCN(C(=O)[C@@H]6C[C@H]6C(=O)NCc6ccc7c(c6)CN(C6CCC(=O)NC6=O)C7=O)C5)C4)c3)cn2)CC1` (stereo partly shown) [Compound 131], the half-maximal degradation concentration (DC50) is 100 to 1000 nM. As for `C[C@@H]1OCC2(CCN(c3cnc(Sc4cccc(NC(=O)CCN5CC6(CCN(c7ccc(COc8cccc9c8CN(C8CCC(=O)NC8=O)C9=O)nn7)C6)C5)c4)cn3)CC2)[C@@H]1N` (stereo partly shown) [Compound 132], the DC50 was less than 100 nM.

On to `CC1(N)CCN(c2cnc(Sc3cccc(NC(=O)CCN4CC5(CCN(c6ccc(COc7cccc8c7CN(C7CCC(=O)NC7=O)C8=O)nn6)C5)C4)c3)cn2)CC1` (stereo not shown) [Compound 133], for which the half-maximal degradation concentration (DC50) is greater than 1000 nM. Turning to `CC1(N)CCN(c2cnc(Sc3cccc(NC(=O)CCCCCCC(=O)N4CC5(CCN(c6ccc(C(=O)NCc7ccc8c(c7)CN(C7CCC(=O)NC7=O)C8=O)nn6)C5)C4)c3)cn2)CC1` (stereo not shown) [Compound 134], the DC50 lay in the range of 100 to 1000 nM. Take `NC1(CF)CCN(c2cnc(Sc3cccc(NC(=O)CCCCCCCO[C@H]4CCN(c5ccc(C(=O)NCc6ccc7c(c6)CN(C6CCC(=O)NC6=O)C7=O)nn5)C4)c3)cn2)CC1` (stereo partly shown) [Compound 135]: the DC50 was less than 100 nM. The value for `CN[C@H](C)C(=O)N[C@@H](C(=O)N1C[C@@H](NC(=O)c2cnc(N3CCC4(CN(CCCCC(=O)Nc5cccc(Sc6cnc(N7CCC(N)(CF)CC7)cn6)c5)C4)C3)nc2)C[C@@H]1C(=O)Nc1c(F)cccc1F)C(C)(C)C` [Compound 136] was greater than 1000 nM.

Consider `NC1(CF)CCN(c2cnc(Sc3cccc(NC(=O)CCCCN4CC5(CCN(c6ccc(C(=O)NCc7ccc8c(c7)CN(C7CCC(=O)NC7=O)C8=O)nn6)C5)C4)c3)cn2)CC1` (stereo not shown) [Compound 137], for which the DC50 is greater than 1000 nM.

In the case of `CN[C@H](C)C(=O)N[C@@H](C(=O)N1C[C@@H](NC(=O)c2ccc(N3CC(C)N(CCCCCCCCC(=O)Nc4cccc(Sc5cnc(N6CCC(C)(N)CC6)cn5)c4)C(C)C3)nn2)C[C@@H]1C(=O)Nc1c(F)cccc1F)C(C)(C)C` (stereo partly shown) [Compound 139], the half-maximal degradation concentration (DC50) is greater than 1000 nM. For the compound `CN[C@H](C)C(=O)N[C@@H](C(=O)N1C[C@@H](NC(=O)c2ccc(N3CC4CCC(C3)N4CCCCCCCCC(=O)Nc3cccc(Sc4cnc(N5CCC(N)C(F)C5)cn4)c3)nn2)C[C@@H]1C(=O)Nc1c(F)cccc1F)C(C)(C)C` (stereo partly shown) [Compound 142], the half-maximal degradation concentration (DC50) is greater than 1000 nM.

Consider `NC1CCN(c2cnc(Sc3cccc(NC(=O)CCCCCCCCN4C5CCC4CN(c4ccc(C(=O)NCc6ccc7c(c6)CN(C6CCC(=O)NC6=O)C7=O)nn4)C5)c3)cn2)CC1F` (stereo not shown) [Compound 143], for which the DC50 was less than 100 nM. `Cc1ncsc1-c1ccc([C@H](C)NC(=O)[C@@H]2C[C@@H](O)CN2C(=O)[C@@H](NC(=O)c2ccc(N3CCC4(CN(CCCCC(=O)Nc5cccc(Sc6cnc(N7CCC(C)(N)CC7)cn6)c5)C4)C3)nn2)C(C)(C)C)cc1` [Compound 144]: the 50% degradation concentration (DC50) was in the range of 100 to 1000 nM. The value for `CC1(N)CCN(c2cnc(Sc3cccc(NC(=O)CCCCN4CC5(CCN(c6ccc(C(=O)NCc7ccc8c(c7)CN(C7CCC(=O)NC7=O)C8=O)nn6)C5)C4)c3)cn2)CC1` (stereo not shown) [Compound 145] was less than 100 nM. Consider `CC1(N)CCN(c2cnc(Sc3cccc(NC(=O)CCCCCCCCN4C5CCC4CN(c4ccc(C(=O)N6CCN(c7ccc8c(c7)C(=O)N(C7CCC(=O)NC7=O)C8=O)CC6)nn4)C5)c3)cn2)CC1` (stereo not shown) [Compound 148], for which the DC50 is less than 100 nM. In the case of `CC1(N)CCN(c2cnc(Sc3cccc(NC(=O)CCCCCCCCN4C5CCC4CN(c4ccc(CN6CCN(c7ccc8c(c7)C(=O)N(C7CCC(=O)NC7=O)C8=O)CC6)nn4)C5)c3)cn2)CC1` (stereo not shown) [Compound 149], the 50% degradation concentration (DC50) is less than 100 nM. The value for `CC1(N)CCN(c2cnc(Sc3cccc(NC(=O)/C=C/C(=O)N4CC5(CCN(CCCCCCC(=O)NCc6ccc7c(c6)CN(C6CCC(=O)NC6=O)C7=O)C5)C4)c3)cn2)CC1` (stereo not shown) [Compound 150] was greater than 1000 nM; that for `CC1(N)CCN(c2cnc(Sc3cccc(NC(=O)/C=C/C(=O)N4CCC5(CN(CCCCCCC(=O)NCc6ccc7c(c6)CN(C6CCC(=O)NC6=O)C7=O)C5)C4)c3)cn2)CC1` (stereo not shown) [Compound 151] was greater than 1000 nM.

(Values after US20240383908A1, “SYNTHESIS AND APPLICATION OF PHOSPHATASE DEGRADER” (HINOVA PHARMACEUTICALS INC., priority 2021, published 2024).)
